Measurements from ChEMBL document CHEMBL5352470, “RS6077 induces mitotic arrest and selectively activates cell death in human cancer cell lines and in a lymphoma tumor in vivo” (Eur J Med Chem, 2023).
pIC50: −log10 of the molar value.

How the values were obtained:
[1] = Toxicity in human T cells derived from human PBMC assessed as early apoptotic cells at 0.1 uM measured for 48 hrs by annexin V-FITC and PI staining based flow cytometry analysis (reference value: 6.75 to 8.22 %); settings: t-cell
KARPAS-422 = assay: Antiproliferative activity against human KARPAS-422 cells assessed as inhibition of cell growth measured for 72 hrs by MTT assay; type: functional, cell-based; settings: KARPAS-422, 72 h
[2] = Selectivity ratio of IC50 for human TERT-RPE1 cells to IC50 for human AHH-1 cells; type: functional
AHH-1 [3] = assay: Antiproliferative activity against human AHH-1 cells assessed as inhibition of cell growth measured for 48 hrs by MTT assay; type: functional, cell-based; settings: AHH-1, 48 h
AHH-1 [4] = assay: Induction of cell cycle arrest in human AHH-1 cells assessed as accumulation of cells at G2/M phase at 1000 nM incubated for 72 hrs by annexin V-FITC and PI staining based flow cytometry analysis; type: functional
[5] = Toxicity in human T cells derived from human PBMC assessed as late apoptotic cells at 1 uM measured for 48 hrs by annexin V-FITC and PI staining based flow cytometry analysis (reference value: 13.5 to […] %); settings: t-cell
AHH-1 [6] = assay: Induction of cell cycle arrest in human AHH-1 cells assessed as accumulation of cells at G1 phase at 2500 nM incubated for 72 hrs by annexin V-FITC and PI staining based flow cytometry analysis; type: functional
HeLa [7] = assay: Induction of cell cycle arrest in human HeLa cells assessed as accumulation of cells at G2/M phase at 100 nM incubated for 72 hrs by annexin V-FITC and PI staining based flow cytometry analysis; type: functional
Tubulin = assay: Inhibition of tubulin polymerization (unknown origin) incubated for 20 mins in presence of GTP by spectrophotometric analysis; type: protein-complex assay, Homo sapiens
Farage = assay: Antiproliferative activity against human Farage cells assessed as inhibition of cell growth measured for 72 hrs by MTT assay; type: functional, cell-based
TERT-RPE1 = assay: Induction of cell cycle arrest in human TERT-RPE1 cells assessed as accumulation of cells at G2/M phase at 1000 nM incubated for 72 hrs by annexin V-FITC and PI staining based flow cytometry analysis; type: functional
AHH-1 [8] = assay: Induction of cell cycle arrest in human AHH-1 cells assessed as accumulation of cells at G1 phase at 100 nM incubated for 72 hrs by annexin V-FITC and PI staining based flow cytometry analysis; type: functional
HeLa [9] = assay: Induction of cell cycle arrest in human HeLa cells assessed as accumulation of cells at G1 phase at 2500 nM incubated for 72 hrs by annexin V-FITC and PI staining based flow cytometry analysis; type: functional
AHH-1 [10] = assay: Induction of cell cycle arrest in human AHH-1 cells assessed as accumulation of cells at G2/M phase at 100 nM incubated for 72 hrs by annexin V-FITC and PI staining based flow cytometry analysis; type: functional

## COc1cc(C(=O)c2ccn(-c3ncnc4[nH]ccc34)c2)cc(OC)c1OC
[1]
  Activity: 5.88%
KARPAS-422
  pIC50: 7.44
[2]
  Ratio IC50: 6.2
AHH-1 [3]
  pIC50: 7.79
AHH-1 [4]
  Activity: 70.8%
[5]
  Activity: 12.7%
AHH-1 [6]
  Activity: 9.8%
HeLa [7]
  Activity: 28.3%
Tubulin
  pIC50: 6.55
Farage
  pIC50: 7.75
TERT-RPE1
  Activity: 82.7%
AHH-1 [8]
  Activity: 37.1%
HeLa [9]
  Activity: 17%
AHH-1 [10]
  Activity: 32%
